EC50 and IC50 data for two molecules are collected here from ChEMBL document CHEMBL1201862, “PubChem BioAssay data set” (2004).

Activity calls are given as the source filed them.

The subject of experiment [1] is Streptococcus sp. 'group A'. Kind of experiment: growth inhibition of control SK(-) GAS strain, dose response, counter-screen for streptokinase expression inhibitor project, luminescence, kanamycin, BacTiterGlo, confirmation (AID 1900). Type of experiment: functional, organism-based. (A counterscreen serves to expose hits that act by an unwanted route or on another target.)

Experiment [2] addresses T1, Sentrin-specific protease 6 (Homo sapiens, UniProt Q9GZR1).
T1 sequence (Q9GZR1 whole entry): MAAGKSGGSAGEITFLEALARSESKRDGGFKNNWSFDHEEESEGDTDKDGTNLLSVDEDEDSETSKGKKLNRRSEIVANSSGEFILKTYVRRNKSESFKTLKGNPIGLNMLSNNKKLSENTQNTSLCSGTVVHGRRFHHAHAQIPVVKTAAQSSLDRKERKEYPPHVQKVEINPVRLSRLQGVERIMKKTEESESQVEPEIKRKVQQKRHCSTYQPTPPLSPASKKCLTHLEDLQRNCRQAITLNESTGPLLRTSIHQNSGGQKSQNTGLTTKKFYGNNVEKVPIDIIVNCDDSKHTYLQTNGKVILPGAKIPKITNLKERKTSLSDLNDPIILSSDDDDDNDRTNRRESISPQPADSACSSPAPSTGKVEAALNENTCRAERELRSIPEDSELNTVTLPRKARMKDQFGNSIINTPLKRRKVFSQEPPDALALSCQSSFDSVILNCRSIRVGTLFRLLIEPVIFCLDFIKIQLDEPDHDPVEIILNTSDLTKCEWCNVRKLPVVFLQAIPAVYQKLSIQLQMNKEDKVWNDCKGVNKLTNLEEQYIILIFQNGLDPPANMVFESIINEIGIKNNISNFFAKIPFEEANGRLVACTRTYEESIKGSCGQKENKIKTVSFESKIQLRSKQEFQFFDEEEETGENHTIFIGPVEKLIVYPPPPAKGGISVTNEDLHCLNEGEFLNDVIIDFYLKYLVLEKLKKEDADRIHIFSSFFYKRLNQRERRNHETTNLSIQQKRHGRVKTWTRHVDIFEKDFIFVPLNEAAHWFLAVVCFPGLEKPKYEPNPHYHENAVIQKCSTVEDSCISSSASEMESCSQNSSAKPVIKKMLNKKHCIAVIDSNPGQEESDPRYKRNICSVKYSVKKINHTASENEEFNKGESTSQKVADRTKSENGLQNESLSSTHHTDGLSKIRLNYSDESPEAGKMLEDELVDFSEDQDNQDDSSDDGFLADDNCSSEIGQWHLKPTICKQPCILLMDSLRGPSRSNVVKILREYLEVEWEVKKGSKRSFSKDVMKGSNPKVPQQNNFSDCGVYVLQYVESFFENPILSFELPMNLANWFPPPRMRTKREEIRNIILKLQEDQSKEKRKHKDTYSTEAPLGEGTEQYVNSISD
Type of experiment: functional.

A short description of experiment [3]: cytotoxicity toward NIH3T3 fibroblasts, dose response, counter-screen, cell-based, ATP luminescence, mouse fibroblasts (AID 2010).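 Also: cells exposed to compound for about 90 hours before reading.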 Type of experiment: functional.
For another experiment, the target named is Hexokinase HKDC1 (Homo sapiens, UniProt Q2TB90). The experiment in a line: HKDC1 hexokinase activators, dose response, biochemical, W721R variant (AID 504730). Type of experiment: functional.
Hexokinase HKDC1, sequence (Q2TB90 whole entry): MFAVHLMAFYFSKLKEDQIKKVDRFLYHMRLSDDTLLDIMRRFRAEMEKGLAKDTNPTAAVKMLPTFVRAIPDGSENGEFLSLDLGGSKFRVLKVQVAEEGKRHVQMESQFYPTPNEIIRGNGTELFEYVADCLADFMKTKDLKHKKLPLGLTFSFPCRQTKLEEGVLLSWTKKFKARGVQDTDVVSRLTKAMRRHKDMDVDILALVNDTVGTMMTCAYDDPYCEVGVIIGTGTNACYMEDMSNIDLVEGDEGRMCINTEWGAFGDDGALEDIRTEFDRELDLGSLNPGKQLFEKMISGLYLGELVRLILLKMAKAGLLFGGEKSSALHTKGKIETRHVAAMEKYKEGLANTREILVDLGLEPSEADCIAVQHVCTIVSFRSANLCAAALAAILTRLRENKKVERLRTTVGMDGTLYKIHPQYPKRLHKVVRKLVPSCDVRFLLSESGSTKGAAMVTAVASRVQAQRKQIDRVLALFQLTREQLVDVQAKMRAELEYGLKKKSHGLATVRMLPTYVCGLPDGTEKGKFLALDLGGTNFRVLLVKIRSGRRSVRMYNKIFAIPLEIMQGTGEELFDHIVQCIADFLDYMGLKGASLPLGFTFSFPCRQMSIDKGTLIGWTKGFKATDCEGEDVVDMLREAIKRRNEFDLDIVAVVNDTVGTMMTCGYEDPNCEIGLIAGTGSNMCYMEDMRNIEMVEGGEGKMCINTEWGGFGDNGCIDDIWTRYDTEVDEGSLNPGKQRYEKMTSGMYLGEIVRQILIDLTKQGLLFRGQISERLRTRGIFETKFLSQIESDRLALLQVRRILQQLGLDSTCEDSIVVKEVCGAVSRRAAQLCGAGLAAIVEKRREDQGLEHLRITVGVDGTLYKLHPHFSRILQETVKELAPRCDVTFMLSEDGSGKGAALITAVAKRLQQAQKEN
Experiment [4] in a line: Counterscreen for AddAB inhibitors: absorbance-based bacterial cell-based high throughput dose response assay for inhibitors of bacterial viability. [Related pubchem assays (depositor defined):AID435030, AID449728, AID449731, AID488942, AID488955, AID488956]. It counts as functional.

The term EC50 denotes the concentration needed to bring the measured effect to its halfway point. For orientation: IC50 means the concentration at which inhibition is half-maximal. With `CCOc1cccc(/C=N/NC(=S)Nc2ccccc2[N+](=O)[O-])c1O`, the EC50 in experiment [1] was 0.267 µM (active). For the same molecule, the IC50 in experiment [2] was 10.3 µM (active).
As for `CCCCC(=O)NC(c1ccc(N(CC)CC)cc1)c1ccc2cccnc2c1O` (stereo not given), the results for the EC50 (in experiment [3]; on Hexokinase HKDC1) were 0.884 µM (active) and 13.3 µM (active), respectively. In experiment [4], the IC50 was > 119 µM (inactive).
